Source: the supplement of paper PMC10883282
± gives the standard deviation of the averaged measurements.

Tests used:
Assay in all cases: relative viability vs DMSO control (72 h) (fraction); higher = more viable cells
[1] = system: A204
Method in brief: (§1)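 Percent growth from ATPLite readings, averaged over up to triplicate wells, was used as relative viability. Sarcoma cell lines were seeded into 384-well plates for 80–90% confluence, dosed after 24 h, and kept 72 h at 37 °C, 5% CO2. Data were rescaled to a range where 1 is full and 0 is none.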

[2] = system: G401
Method in brief: as §1

[3] = system: HS729
Method in brief: as §1

[4] = system: HT1080
Method in brief: as §1

[5] = system: KHOS-NP
Method in brief: as §1

[6] = system: MES-SA
Method in brief: as §1

[7] = system: SK-LMS-1
Method in brief: as §1

[8] = system: SW1353
Method in brief: as §1

[9] = system: SW684
Method in brief: as §1

[10] = system: SW872
Method in brief: as §1

[11] = system: SYO-1
Method in brief: as §1

[12] = system: VA-ES-BJ
Method in brief: as §1

CNC(=O)c1ccccc1Sc1ccc2c(/C=C/c3ccccn3)n[nH]c2c1 [Axitinib]
Details	relative viability
[1], 0.00017 µM	1.04 ± 0.081
[1], 0.00051 µM	1.07 ± 0.048
[1], 0.00152 µM	1.03 ± 0.036
[1], 0.00457 µM	0.942 ± 0.032
[1], 0.01372 µM	0.77 ± 0.063
[1], 0.04115 µM	0.484 ± 0.032
[1], 0.1235 µM	0.405 ± 0.043
[1], 0.3704 µM	0.359 ± 0.043
[1], 1.111 µM	0.289 ± 0.045
[1], 3.333 µM	0.159 ± 0.096
[1], 10 µM	0.0338 ± 0.0049
[2], 0.00017 µM	1.04 ± 0.037
[2], 0.00051 µM	1.04 ± 0.014
[2], 0.00152 µM	1.02 ± 0.011
[2], 0.00457 µM	1.01 ± 0.011
[2], 0.01372 µM	0.979 ± 0.043
[2], 0.04115 µM	0.963 ± 0.041
[2], 0.1235 µM	0.942 ± 0.049
[2], 0.3704 µM	0.854 ± 0.056
[2], 1.111 µM	0.806 ± 0.05
[2], 3.333 µM	0.456 ± 0.046
[2], 10 µM	0.0633 ± 0.0041
[3], 0.00017 µM	1.09 ± 0.026
[3], 0.00051 µM	1.03 ± 0.076
[3], 0.00152 µM	1.04 ± 0.081
[3], 0.00457 µM	0.987 ± 0.047
[3], 0.01372 µM	0.909 ± 0.12
[3], 0.04115 µM	0.916 ± 0.081
[3], 0.1235 µM	0.929 ± 0.063
[3], 0.3704 µM	0.861 ± 0.083
[3], 1.111 µM	0.698 ± 0.04
[3], 3.333 µM	0.271 ± 0.042
[3], 10 µM	0.111 ± 0.0086
[4], 0.00017 µM	1.1 ± 0.017
[4], 0.00051 µM	1.06 ± 0.071
[4], 0.00152 µM	1.1 ± 0.012
[4], 0.00457 µM	1.1 ± 0.042
[4], 0.01372 µM	1.13 ± 0.025
[4], 0.04115 µM	1.11 ± 0.029
[4], 0.1235 µM	1.08 ± 0.036
[4], 0.3704 µM	1 ± 0.049
[4], 1.111 µM	1.04 ± 0.037
[4], 3.333 µM	0.979 ± 0.035
[4], 10 µM	0.388 ± 0.028
[5], 0.00017 µM	1.08 ± 0.034
[5], 0.00051 µM	1.12 ± 0.032
[5], 0.00152 µM	1.12 ± 0.031
[5], 0.00457 µM	1.12 ± 0.013
[5], 0.01372 µM	1.12 ± 0.02
[5], 0.04115 µM	1.106 ± 0.0093
[5], 0.1235 µM	1.07 ± 0.035
[5], 0.3704 µM	1.01 ± 0.038
[5], 1.111 µM	0.986 ± 0.015
[5], 3.333 µM	0.827 ± 0.029
[5], 10 µM	0.405 ± 0.049
[6], 0.00017 µM	0.995 ± 0.025
[6], 0.00051 µM	0.9681 ± 0.0042
[6], 0.00152 µM	0.978 ± 0.036
[6], 0.00457 µM	0.977 ± 0.03
[6], 0.01372 µM	0.967 ± 0.02
[6], 0.04115 µM	0.949 ± 0.015
[6], 0.1235 µM	0.951 ± 0.05
[6], 0.3704 µM	0.785 ± 0.018
[6], 1.111 µM	0.825 ± 0.056
[6], 3.333 µM	0.257 ± 0.02
[6], 10 µM	0.056 ± 0.0056
[7], 0.00017 µM	1.11 ± 0.07
[7], 0.00051 µM	1.14 ± 0.027
[7], 0.00152 µM	1.12 ± 0.022
[7], 0.00457 µM	1.09 ± 0.036
[7], 0.01372 µM	1.1 ± 0.032
[7], 0.04115 µM	1.09 ± 0.033
[7], 0.1235 µM	1.17 ± 0.018
[7], 0.3704 µM	1.17 ± 0.035
[7], 1.111 µM	1.18 ± 0.051
[7], 3.333 µM	1.13 ± 0.043
[7], 10 µM	0.55 ± 0.032
[8], 0.00017 µM	1.09 ± 0.041
[8], 0.00051 µM	1.1 ± 0.015
[8], 0.00152 µM	1.05 ± 0.019
[8], 0.00457 µM	1.04 ± 0.041
[8], 0.01372 µM	1.04 ± 0.02
[8], 0.04115 µM	1.01 ± 0.034
[8], 0.1235 µM	1.02 ± 0.079
[8], 0.3704 µM	0.908 ± 0.026
[8], 1.111 µM	0.94 ± 0.035
[8], 3.333 µM	0.789 ± 0.036
[8], 10 µM	0.288 ± 0.011
[9], 0.00017 µM	1.17 ± 0.069
[9], 0.00051 µM	1.17 ± 0.013
[9], 0.00152 µM	1.21 ± 0.038
[9], 0.00457 µM	1.188 ± 0.005
[9], 0.01372 µM	1.19 ± 0.05
[9], 0.04115 µM	1.15 ± 0.056
[9], 0.1235 µM	1.14 ± 0.012
[9], 0.3704 µM	1.12 ± 0.032
[9], 1.111 µM	1.14 ± 0.035
[9], 3.333 µM	0.978 ± 0.053
[9], 10 µM	0.493 ± 0.036
[10], 0.00017 µM	1.08 ± 0.024
[10], 0.00051 µM	1.04 ± 0.037
[10], 0.00152 µM	1.06 ± 0.052
[10], 0.00457 µM	1.08 ± 0.018
[10], 0.01372 µM	1.05 ± 0.033
[10], 0.04115 µM	1.03 ± 0.016
[10], 0.1235 µM	0.981 ± 0.033
[10], 0.3704 µM	0.902 ± 0.075
[10], 1.111 µM	0.779 ± 0.053
[10], 3.333 µM	0.511 ± 0.027
[10], 10 µM	0.213 ± 0.0081
[11], 0.00017 µM	1 ± 0.0059
[11], 0.00051 µM	0.973 ± 0.026
[11], 0.00152 µM	0.9673 ± 0.009
[11], 0.00457 µM	0.913 ± 0.011
[11], 0.01372 µM	0.841 ± 0.038
[11], 0.04115 µM	0.742 ± 0.035
[11], 0.1235 µM	0.662 ± 0.013
[11], 0.3704 µM	0.485 ± 0.036
[11], 1.111 µM	0.422 ± 0.026
[11], 3.333 µM	0.141 ± 0.018
[11], 10 µM	0.0669 ± 0.017
[12], 0.00017 µM	1.11 ± 0.03
[12], 0.00051 µM	1.097 ± 0.0062
[12], 0.00152 µM	1.11 ± 0.033
[12], 0.00457 µM	1.12 ± 0.013
[12], 0.01372 µM	1.09 ± 0.028
[12], 0.04115 µM	1.08 ± 0.044
[12], 0.1235 µM	1.05 ± 0.018
[12], 0.3704 µM	0.9867 ± 0.0094
[12], 1.111 µM	0.977 ± 0.045
[12], 3.333 µM	0.61 ± 0.038
[12], 10 µM	0.263 ± 0.044
